Source: article PMC6479349, “Derivatives of 3-Aminopyrazine-2-carboxamides: Synthesis, Antimicrobial Evaluation, and in Vitro Cytotoxicity” (Molecules, 2019)
Converted amounts (≈) assume the structure as drawn. “And” between values parts separate entries of the source, which are not always exact repeats. Equal values may be shown once. Read-outs that look alike come from different tables or passages of the source.

Experiments:
[1] = tested on: Mycobacterium tuberculosis H37Rv; assay: Antimycobacterial microdilution broth MIC (Alamar Blue); assay type: cell-based
[2] = tested on: Mycobacterium smegmatis DSM 43465; assay: Antimycobacterial microdilution broth panel MIC (resazurin); assay type: cell-based
[3] = Lipophilicity by reverse phase HPLC (log k); conditions: RP-HPLC C18, MeOH 70% / H2O 30%, 30 °C
Protocol: The mobile phase consisted of MeOH (HPLC grade, 70%) and H2O (HPLC-Milli-Q Grade, 30%). The flow rate was 1.0 mL/min, samples were injected in a volume of 20 µL, and the column temperature was 30 °C. Detection and monitoring wavelength were 210 nm and 270 nm, respectively. Retention times (Rt) were measured in minutes. The dead time of the system (Dt) was determined as the retention time of the KI methanolic solution. Capacity factors k for individual compounds were calculated according to the formula k = (Rt – Dt)/Dt. Capacity factor k was converted to log scale and (log k) and used as a measure of lipophilicity.

[4] = tested on: Trichophyton interdigitale CCM 8377; assay: Antifungal microdilution broth MIC
[5] = tested on: M. kansasii CNCTC My 235/80; assay: Antimycobacterial microdilution broth MIC (Alamar Blue); assay type: cell-based, Mycobacterium kansasii; conditions: Mycobacterium kansasii
tested bacterial strains = assay: Antibacterial microdilution broth screening, strain not specified; conditions: read-out: MIC against the tested strains (antibacterial)
[6] = tested on: Staphylococcus aureus CCM 4223; assay: Antibacterial microdilution broth MIC
[7] = tested on: Staphylococcus aureus methicillin resistant CCM 4750; assay: Antibacterial microdilution broth MIC
[8] = tested on: Staphylococcus epidermidis 112-2016; assay: Antibacterial microdilution broth MIC
[9] = tested on: Enterococcus faecalis CCM 4224; assay: Antibacterial microdilution broth MIC; conditions: CCM4224, 48 h, read-out: MIC Enterococcus faecalis (standards)
[10] = tested on: Escherichia coli CCM 3954; assay: Antibacterial microdilution broth MIC; conditions: CCM3954, 48 h, read-out: MIC Escherichia coli (standards)
[11] = tested on: Klebsiella pneumoniae 64-2016; assay: Antibacterial microdilution broth MIC; conditions: Klebsiella pneumoniae, 642016, 48 h, read-out: MIC Klebsiella pneumonia (standards)
[12] = tested on: Serratia marcescens 62-2016; assay: Antibacterial microdilution broth MIC; conditions: Serratia marcescens, 622016, 48 h, read-out: MIC Serratia marcescens (standards)
[13] = tested on: Pseudomonas aeruginosa CCM 3955; assay: Antibacterial microdilution broth MIC; conditions: CCM3955, 48 h, read-out: MIC Pseudomonas aeruginosa (standards)
[14] = In vitro cytotoxicity, CellTiter 96 Aqueous One; conditions: human
[15] = Mycobacterium tuberculosis, H37RV, M. tuberculosis H37Rv, value in parentheses
[16] = Mycobacterium tuberculosis, H37RV, pH 6.6, M. tuberculosis H37Rv, Middlebrook 7H9 pH 6.6
[17] = Mycolicibacterium smegmatis, DSM43465
[18] = Mycolicibacterium smegmatis, DSM43465, value in parentheses
[19] = M. tuberculosis H37Rv, Middlebrook 7H9 pH 6.6

Structure (SMILES)	MIC [1, 15] [µM]	MIC [1, 16] [µg/mL]	MIC [2, 17] [µg/mL]	MIC [2, 18] [µM]	log k [3]	also measured
Nc1nccnc1C(=O)Nc1ccc(F)cc1F [Compound 18, 3-Amino-N-(2,4-difluorophenyl)pyrazine-2-carboxamide]	> 400	> 100	> 500	> 2000	0.422	
Cc1ccc(C)c(NC(=O)c2nccnc2N)c1 [Compound 15, 3-Amino-N-(2,5-dimethylphenyl)pyrazine-2-carboxamide]	> 413	> 100	> 500	> 2060	0.778	
COc1ccc(CNC(=O)c2nccnc2N)cc1 [Compound 4, 3-Amino-N-(4-methoxybenzyl)pyrazine-2-carboxamide]	387	50 to 100	> 500	> 1940	0.026	MIC Mtb [1, 19]: 100 µg/mL (≈ 387 µM); antifungal activity against TI [4]: showed activity mainly against TI
CCCCCCCNC(=O)c1nccnc1N [Compound 11, 3-Amino-N-heptylpyrazine-2-carboxamide]	212	50	62.5	264	0.813	MIC ([1]; M. tuberculosis H37Rv, value in parentheses): 211.6 µM; MIC [5]: 50 µg/mL and 212 µM; MIC ([2]; value in parentheses): 264.5 µM; MIC ([4]; Trichophyton interdigitale, CCM8377, 72 h, read-out: MIC72h TI): 500 µM (≈ 118 µg/mL); MIC (tested bacterial strains): 250 µM (≈ 59.1 µg/mL)
CNC(C)C1CCC(N)C(OC2C(N)CC(N)C(OC3OCC(C)(O)C(NC)C3O)C2O)O1 (stereo not drawn) [gentamicin]						MIC ([6]; CCM4223, 48 h, read-out: MIC Staphylococcus aureus (standards)): 1 µg/mL; MIC ([7]; CCM4750, 48 h, read-out: MIC Staphylococcus aureus methicillin resistant (standards)): 16 to 32 µg/mL; MIC ([8]; Staphylococcus epidermidis, 1122016, 48 h, read-out: MIC Staphylococcus epidermidis (standards)): > 8 µg/mL; MIC [9]: 8 µg/mL (≈ 16.8 µM); MIC [10]: 1 to 2 µg/mL (≈ 2.09 to 4.19 µM); MIC [11]: > 8 µg/mL; MIC [12]: 2 µg/mL (≈ 4.19 µM); MIC [13]: 0.5 µg/mL (≈ 1.05 µM)
Nc1nccnc1C(=O)Nc1ccc(Cl)c(Cl)c1 [Compound 19, 3-Amino-N-(3,4-dichlorophenyl)pyrazine-2-carboxamide]	177	50	> 500	> 1770	0.778	
Nc1nccnc1C(=O)NCc1cccc(C(F)(F)F)c1 [Compound 7, 3-Amino-N-(3-(trifluoromethyl)benzyl)pyrazine-2-carboxamide]	169	50 to 100	250	844	0.282	MIC Mtb [1, 19]: 50 µg/mL (≈ 169 µM); antifungal activity against TI [4]: showed activity mainly against TI
Nc1nccnc1C(=O)NCc1ccc(Cl)c(Cl)c1 [Compound 6, 3-Amino-N-(3,4-dichlorobenzyl)pyrazine-2-carboxamide]	> 336	> 100	> 500	> 1680	0.493	
Nc1nccnc1C(=O)Nc1ccc(C(F)(F)F)cc1 [Compound 20, 3-Amino-N-(4-(trifluoromethyl)phenyl)pyrazine-2-carboxamide]	177	50	31.2	111	0.525	MIC ([2]; value in parentheses): 110.7 µM; MIC ([6]; CCM4223, read-out: MIC Staphylococcus aureus): 31.2 µM; MIC ([7]; CCM4750|MRSA, read-out: MIC methicillin resistant S. aureus (MRSA)): 62.5 µM; MIC ([8]; Staphylococcus epidermidis, 1122016, read-out: MIC S. epidermidis): 62.5 µM; IC50 at 24 h [14]: 41.4 µM
COc1ccc(CNC(=O)c2nccnc2N)c(OC)c1 [Compound 5, 3-Amino-N-(2,4-dimethoxybenzyl)pyrazine-2-carboxamide]	> 347	> 100	> 500	> 1730	0.188	
NC(=O)c1cnccn1 [PZA, Pyrazinamide, reference compound]		100	> 100			
